Measured values: patent US12570612B2, “Substituted nitrogen heterocyclic compound and anesthetic effect thereof” (priority 2019, dated 2026)
Entries after “also recorded” stand apart in the source; their conditions may differ. Where two headings read alike, the source gives them in different places.

Columns and labels:
Sprague-Dawley rats [1] = test: animal or person
Experimental: (§1) Adult male Sprague-Dawley rats (250-300 g) were selected for the experiment. […] The anesthesia effects of the compounds were assessed in rats using a LORR assay and a period >30 s was considered as an indicator of general anesthesia.

Sprague-Dawley rats [2] = test: Pharmacological effect and adverse reactions under the equivalent dose (2ED50), Group D compounds; type: in vivo
Excerpt: (§2) Evaluation index: onset time: from the completion of drug injection to the disappearance of forepaw righting reflex in rats; Duration of anesthesia: the time from the disappearance of rat forepaw righting reflex to the recovery of rat forepaw righting reflex; Recovery time of anesthesia: the time from the […] to complete recovery;

adrenal cortex function [3] = settings: rat, in vivo
[4] = test system: circulatory function of rats; settings: rat, in vivo
Experimental: First, animal models were established. […] At least one week after surgery, data were recorded.
Finally, the pharmacological effects, adverse reactions, and behavioral manifestations of the rats were observed and recorded
After data acquisition, the test was stopped.

11β-Hydroxylase = biological target: T1, 11β-Hydroxylase (Homo sapiens, UniProt P15538); settings: cited from earlier work
T1 sequence (P15538 25-503): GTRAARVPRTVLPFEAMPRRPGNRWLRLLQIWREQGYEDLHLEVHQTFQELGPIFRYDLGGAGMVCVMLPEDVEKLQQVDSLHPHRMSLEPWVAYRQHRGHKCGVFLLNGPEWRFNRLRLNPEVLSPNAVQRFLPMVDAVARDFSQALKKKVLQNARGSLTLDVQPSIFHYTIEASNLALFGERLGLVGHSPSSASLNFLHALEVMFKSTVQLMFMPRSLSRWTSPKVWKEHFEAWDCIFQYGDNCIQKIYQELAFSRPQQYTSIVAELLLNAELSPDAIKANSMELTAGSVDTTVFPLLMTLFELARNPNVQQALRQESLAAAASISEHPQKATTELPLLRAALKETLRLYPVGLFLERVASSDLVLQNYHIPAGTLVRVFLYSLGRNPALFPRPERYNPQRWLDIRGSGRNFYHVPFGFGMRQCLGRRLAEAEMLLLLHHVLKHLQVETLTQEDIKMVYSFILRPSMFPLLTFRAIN

Sprague-Dawley rats [5] = type: in vivo; settings: tail vein
SD rats [6] = test system: SD rats
Method in brief: (§3)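 Adult male SD rats (250–350 g) received continuous infusion. Read-outs: time from infusion start to […]; after 1 h infusion, time from stop to return of forepaw turning reflex and to full recovery.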

Sprague-Dawley rats [7] = test system: Sprague-Dawley rats
Experimental: Adult male Sprague-Dawley rats with body weight ranging from 250 to 300 gm were selected for continuous infusion test. […] Time to recovery of righting reflex from stopping infusion, and time to fully awake from stopping infusion were recorded.

[8] = test system: circulatory function of rats; settings: rat, in vivo; remark: listed apart in the source
Sprague-Dawley rats [9] = test: animal or person; type: in vivo; settings: Rattus norvegicus; LORR, up and down method, tail vein, rats; brackets = 95% confidence limit; read-out: ED50
Excerpt: Evaluating indicator: The end point of anesthesia: LORR was used as the end point of anesthesia; General anesthesia effect: the disappearance of forepaw righting reflex in rats lasting for 30 seconds is taken as the index of general anesthesia effect; Anesthesia recovery index: the recovery of rat forepaw righting reflex was used as the index of anesthesia recovery.

Sprague-Dawley rats [10] = test: animal or person; remark: listed apart in the source
Experimental: as §1

Sprague-Dawley rats [11] = test: Pharmacological effect and adverse reactions under the equivalent dose (2ED50), Group C compounds; type: in vivo
Excerpt: as §2

Sprague-Dawley rats [12] = test: Continuous infusion at 2 times the MIR for 1 hour, Group B compounds; type: in vivo
[13] = test system: circulatory function of rats; test: Circulatory function of rats (MAP, HR) by implanted telemetry, Group D compounds; settings: 2ED50, rats, FIG. 19-22
Excerpt: (§4) First, the animal model was established, and the left ventricular catheter, abdominal aorta catheter and electrocardiogram wire were placed. At least one week after the operation, the signal can be collected to start the test. At the beginning of the experiment, after the placement of the indwelling needle in the tail vein of rats, connect the extension tube, put the rats together with the feeding cage on the signal receiver and start collecting data. […] All compounds or drugs were given at a constant volume of 0.6 ml at a uniform rate of 0.1 ml/s.
Evaluation indexes: Collect the blood pressure, heart rate and other data of rats during and 15 minutes after administration, and judge the effect of the compound of the invention on the circulatory function of rats with the indexes of mean arterial pressure (MAP) and heart rate (HR).

[14] = test system: circulatory function of rats; test: Circulatory function of rats (MAP, HR) by implanted telemetry, Group C compounds; settings: 2ED50, rats, FIG. 13-16
Excerpt: as §4

H295R cell line [15] = test: Adrenocortical function in vitro test: secretion of cortisol and corticosterone, Group A compounds; type: cell-based; settings: H295 cells; for EC50: Homo sapiens, 0.1-10000 nM, HPLC-MS/MS
Sprague-Dawley rats [16] = test: animal or person; type: in vivo; settings: Rattus norvegicus; LORR, up and down method, tail vein, rats; brackets = 95% confidence limit; read-out: ED50; remark: listed apart in the source
Excerpt: Evaluating indicator: The end point of anesthesia: the disappearance of forepaw righting reflex (lorr) was used as the end point of anesthesia; General anesthesia effect: the disappearance of forepaw righting reflex in rats lasting for 30 seconds is taken as the index of general anesthesia effect; Anesthesia recovery index: the recovery of rat forepaw righting reflex was used as the index of anesthesia recovery.

Sprague-Dawley rats [17] = type: in vivo; settings: tail vein; remark: listed apart in the source
adrenal cortex function [18] = settings: rat, in vivo; remark: listed apart in the source
SD rats [19] = test system: SD rats; remark: listed apart in the source
Method in brief: as §3

H295R cell line [20] = test: Adrenocortical function in vitro test: secretion of cortisol and corticosterone, Group B compounds; type: cell-based; settings: H295R cells; for EC50: Homo sapiens, NCI-H295R, 0.1-10000 nM, HPLC-MS/MS
[21] = 2ED50, tail vein, rats, n=8, unit s
[22] = equivalent dose (2 × ED50), number of rats of n = 8
[23] = after 1 hour continuous infusion at 2 times the MIR, SD rats
[24] = continuous infusion 2 x MIR 1 hour, rats affected/rats
[25] = continuous tail vein infusion at 2 times the MIR, SD rats
[26] = equivalent dose (2ED50), number of rats of n = 8
[27] = read-out: EC50 (Corticosterone)

## CCOC(=O)c1cncn1C(C)c1ccccc1 (stereo not drawn) [Etomidate, reference compound]
Sprague-Dawley rats [1]; Rattus norvegicus
  ED50: 0.75 mg/kg
Sprague-Dawley rats [1]; rats
  Minimal lethal dose: 12.75 mg/kg
Sprague-Dawley rats [2]; [21]
  Onset time: <30 s
Sprague-Dawley rats [2]; [22]
  Adverse reaction: Convulsions: 0
  Adverse reaction: Cough, broken-winded: 0
  Adverse reaction: Euphoria: 0
  Adverse reaction: Four limbs rigidity: 2
  Adverse reaction: Slower breathing, Tetany convulsion: 0
  Adverse reaction: Systemic stiffness, Convulsions, Opisthotonus: 0
  Adverse reaction: Tongue stretching: 4
  Adverse reaction: Tremor: 3
Adrenal cortex function [3]
  effect on the synthesis of adrenal cortex hormone (serum corticosterone): obvious inhibitory effect on adrenal cortex function
[4]
  inhibitory effect on the circulatory function (MAP, HR): almost no inhibitory effect on the circulatory function
11β-Hydroxylase
  inhibition of 11β-Hydroxylase: can inhibit the key enzymes in the synthesis pathway of adrenocortical hormone
Sprague-Dawley rats [5]
  Minimal lethal dose: 13.8 mg/kg
SD rats [6]; [23]
  After the infusion is stopped: Righting reflex recovery time: 15 to 20 min
  Recovery time after stopping infusion: 30 to 40 min
SD rats [6]; [24]
  Types and incidence of adverse reactions: Hindlimb rigidity: Hindlimb rigidity(2/6)
  Types and incidence of adverse reactions: Myoclonus: 4/6
  Types and incidence of adverse reactions: Tongue stretching: Tongue stretching(2/6),
  Types and incidence of adverse reactions: Tremor: 6/6
SD rats [6]; [25]
  Sedation onset time: <5 min
Sprague-Dawley rats [7]; LORR maintained for 1 hour, 2 times the MIR
  Recovery time after stopping infusion: 25 to 30 min
Sprague-Dawley rats [7]; continuous infusion, 2 times the MIR
  Onset time: 4 to 5 min
Sprague-Dawley rats [7]; continuous infusion, (animals affected/animals)
  Types and incidence of adverse reactions: Tonguestretching(5/6); also recorded: Tremor(6/6), Facial; also recorded: muscle twitching (4/6)
[8]
  inhibitory effect on the circulatory function (MAP, HR): almost no inhibitory effect on the circulatory function
Sprague-Dawley rats [9]
  ED50: 0.74 mg/kg
Sprague-Dawley rats [10]; Rattus norvegicus, LORR in rats, tail vein, brackets = 95% confidence limit
  ED50: 0.75 mg/kg
Sprague-Dawley rats [10]; rats
  Minimal lethal dose: 12.75 mg/kg
Sprague-Dawley rats [11]; [21]
  Onset time: <30 s
Sprague-Dawley rats [11]; [26]
  Adverse reaction: Convulsions: 0
  Adverse reaction: Cough, broken-winded: 0
  Adverse reaction: Euphoria: 0
  Adverse reaction: Slower breathing, Tetany convulsion: 0
  Adverse reaction: Systemic stiffness, Convulsions, Opisthotonus: 0
  Adverse reaction: Tongue stretching: 4
  Adverse reaction: Tremor: 6
  Adverse reaction: the four limbs rigidity: 0
Sprague-Dawley rats [12]; after 1 hour continuous infusion at 2 times the MIR, rats
  Recovery time after stopping infusion: 25 to 30 min
Sprague-Dawley rats [12]; [24]
  Types and incidence of adverse reactions: Facial muscle twitching: 4/6
  Types and incidence of adverse reactions: Tongue stretching: Tongue stretching (5/6)
  Types and incidence of adverse reactions: Tremor: Tremor (6/6), Facial
Sprague-Dawley rats [12]; continuous tail vein infusion at 2 times the MIR, emulsion, rats
  Onset time: 4 to 5 min
[13]
  effect on the circulatory function (MAP, HR): slight inhibitory effect on the circulatory function after administration, but soon rises to near the baseline
[14]
  effect on the circulatory function (MAP, HR): slight inhibitory effect on the circulatory function after administration, but soon rises to near the baseline
H295R cell line [15]
  Corticosterone as an indicator to determine the presence of inhibition: 2
  Cortisol as an indicator to determine the presence of inhibition: 2
H295R cell line [15]; [27]
  EC50: > 10 nM
H295R cell line [15]; read-out: EC50 (Cortisol)
  EC50: > 1 nM
Sprague-Dawley rats [16]
  ED50: 0.74 mg/kg
Sprague-Dawley rats [17]
  Minimal lethal dose: 13.8 mg/kg
Adrenal cortex function [18]
  effect on the synthesis of adrenal cortex hormone (serum corticosterone): obvious inhibitory effect on adrenal cortex function
SD rats [19]; [23]
  After the infusion is stopped: Righting reflex recovery time: 15 to 20 min
  Recovery time after stopping infusion: 30 to 40 min
SD rats [19]; [24]
  Types and incidence of adverse reactions: Hindlimb rigidity: Hindlimb rigidity(2/6)
  Types and incidence of adverse reactions: Myoclonus: 4/6
  Types and incidence of adverse reactions: Tongue stretching: Tongue stretching(2/6),
  Types and incidence of adverse reactions: Tremor: 6/6
SD rats [19]; [25]
  Sedation onset time: <5 min
H295R cell line [20]
  Corticosterone as an indicator to determine the presence of inhibition: 2
  Cortisol as an indicator to determine the presence of inhibition: 2
H295R cell line [20]; [27]
  EC50: > 10 nM
H295R cell line [20]; read-out: EC50 (Cortisol)
  EC50: > 1 nM
